Source: publication PMC8100298, “Histone deacetylase inhibitor resminostat in combination with sorafenib counteracts platelet-mediated pro-tumoral effects in hepatocellular carcinoma” (Scientific Reports, 2021)
Like-named read-outs stand apart in the source and are kept apart here.

Tests used:
Assay in all cases: Efficacy screening assay
Assay type in all cases: cell-based
CLS439 = test system: CLS439
Experimental: (§1) The experiment was performed by Oncolead GmbH & Co. KG (Karlsfeld , Germany), based on a standardized screening procedure . Cell lines were purchased directly from the ATCC, NCI and DSMZ cell line c ollections. Cells used for the study had undergone less than 20 passages. To ensure the absence of potential contamination and wrong assignment, all cell lines were tested using a whole genome assay (Agilent, USA). All cell lines were grown as recommended by the suppliers and with addition of 100 U/mL penicillin G and 100 µg/mL; streptomycin. Cell growth and treatments were performed in Nunclon D 96 -well plates (NUNC, Germany). The optimal seeding density for each cell line was determined to ensure exponential growth for the duration of the experiment. All cells growing without anti-cancer agents were sub-conﬂuent by the end of the treatment, as determined by visual inspection.
(§2) After an initial 24 h pre-growth period, the compounds were added. The vehicle concentration […]
(§3) was 0.1% DMSO. After incubation at 37°C for 72 h, the culture medium was aspirated, and the cells were precipitated by the addition of 10% trichloroacetic acid (Sigma-Aldrich, Missouri, US). After overnight incubation at 4°C, the plates were washed three times with deionized water. The precipitates were then stained with SRB (0.4% wt/v sulforhodamine B solution in 1% acetic acid, Sigma-Aldrich, Missouri, US). Afterwards, the plates were washed six times with 1% acetic acid to remove unbound stain. After drying the plates at room temperature, the bound SRB was solubilized with 10 mM Tris base and the optical density was measured at 520 nm using a Victor2 plate reader (Perkin Elmer, Germany). Blank OD values were subtracted from mean OD values for each concentration. The nonlinear curve ﬁtting and EC50 calculations were per formed using XLﬁt and algorithm “205” (ID Business […]
(§4) For comparison of EC50 values in Figure 1F, one-way ANOVA with multiple comparison testing (Tukey) was performed. Multiplicity adjusted p -values for the EC50 with sorafenib versus resminostat for each cell line and comparison between cell lines for sorafenib are presented (95% confidence interval for significance testing). For comparison of EC50 data in Figure 2B, one-way ANOVA with multiple comparison testing (Tukey) was performed. Multiplicity adjusted p-values with 95% confidence interval was applied. For the invasion assays in Figure 4, one-way ANOVA with multiple comparison testing (Tukey) was performed. Multiplicity adjusted p-values with 95% confidence interval was applied. The adjusted p-values comparing vehicle control without vs. with platelets and compound

COLO678 = conditions: Homo sapiens, COLO-678, COLO678, colon, 72 h
Experimental: as §1, §2, §3, §4

EJ28 = conditions: EJ28, bladder
Experimental: as §1, §2, §3, §4

SKMEL5 = conditions: SKMEL5, skin
Experimental: as §1, §2, §3, §4

UO31 = conditions: UO31, kidney
Experimental: as §1, §2, §3, §4

SKNAS = conditions: 72 h, brain
Experimental: as §1, §2, §3, §4

CASKI = conditions: 72 h, cervix
Experimental: as §1, §2, §3, §4

PC3 = conditions: Homo sapiens, PC-3, PC3, prostate, 72 h
Experimental: as §1, §2, §3, §4

RDES = conditions: 72 h, bone
Experimental: as §1, §2, §3, §4

SF268 = conditions: SF268, brain
Experimental: as §1, §2, §3, §4

NCIH460 = conditions: NCIH460, lung
Experimental: as §1, §2, §3, §4

MIAPACA2 = conditions: Homo sapiens, MIA PaCa-2, MIAPACA2, pancreas, 72 h
Experimental: as §1, §2, §3, §4

MT3 = conditions: MT3, breast
Experimental: as §1, §2, §3, §4

PANC1005 = conditions: PANC1005, pancreas
Experimental: as §1, §2, §3, §4

OVCAR4 = conditions: OVCAR4, ovary
Experimental: as §1, §2, §3, §4

HT29 = conditions: HT29, colon
Experimental: as §1, §2, §3, §4

[1] = log of EC50, negative, read-out: log(EC50) (converted)

How did the EC50 (CLS439; 72 h, CLS439, bladder, log of EC50, negative, read-out: log(EC50) (converted)) turn out when `CN(C)Cc1ccc(S(=O)(=O)n2ccc(/C=C/C(=O)NO)c2)cc1` [resminostat, Resminostat] was run?
Its EC50 is 776 nM.

And the EC50 (CLS439; 72 h, CLS439, bladder, read-out: EC50)?
The EC50 was 781 nM.

What about the EC50 (CLS439; CLS439, bladder; 72 h; read-out: EC50) of the same compound?
Its EC50 is 780 nM.

And the EC50 (COLO678; [1])?
Its EC50 is 7590 nM.

And the EC50 (COLO678; read-out: EC50)?
Its EC50 is 7620 nM.

What about the EC50 (EJ28; 72 h, read-out: EC50) of the same compound?
The EC50 was 4590 nM.

What about the EC50 (EJ28; Homo sapiens, EJ-28, 72 h, log of EC50, negative, read-out: log(EC50) (converted)) of the same compound?
Its EC50 is 4570 nM.

And the EC50 (EJ28; Homo sapiens, EJ-28, 72 h, read-out: EC50)?
The EC50 was 4590 nM.

What about the EC50 (SKMEL5; Homo sapiens, SK-MEL-5, 72 h, log of EC50, negative, read-out: log(EC50) (converted)) of the same compound?
The EC50 was 1700 nM.

And the EC50 (SKMEL5; Homo sapiens, SK-MEL-5, 72 h, read-out: EC50)?
Its EC50 is 1710 nM.

What about the EC50 (SKMEL5; 72 h, read-out: EC50) of the same compound?
The EC50 was 1710 nM.

And the EC50 (UO31; Homo sapiens, UO-31, 72 h, log of EC50, negative, read-out: log(EC50) (converted))?
Its EC50 is 72.4 nM.

And the EC50 (UO31; Homo sapiens, UO-31, 72 h, read-out: EC50)?
The EC50 was 72.2 nM.

And the EC50 (UO31; 72 h, read-out: EC50)?
The EC50 was 70 nM.

What about the EC50 (SKNAS; Homo sapiens, SK-N-AS, log of EC50, negative, read-out: log(EC50) (converted)) of the same compound?
The EC50 was 3550 nM.

And the EC50 (SKNAS; Homo sapiens, SK-N-AS, read-out: EC50)?
The EC50 was 3540 nM.

What about the EC50 (SKNAS; read-out: EC50) of the same compound?
Its EC50 is 3540 nM.

And the EC50 (CASKI; Homo sapiens, Ca-Ski, log of EC50, negative, read-out: log(EC50) (converted))?
The EC50 was 2630 nM.

What about the EC50 (CASKI; Homo sapiens, Ca-Ski, read-out: EC50) of the same compound?
The EC50 was 2630 nM.

And the EC50 (CASKI; read-out: EC50)?
Its EC50 is 2630 nM.

And the EC50 (PC3; [1])?
Its EC50 is 1700 nM.

What about the EC50 (PC3; read-out: EC50) of the same compound?
The EC50 was 1690 nM.

What about the EC50 (RDES; RD-ES, log of EC50, negative, read-out: log(EC50) (converted)) of the same compound?
The EC50 was 3550 nM.

What about the EC50 (RDES; RD-ES, read-out: EC50) of the same compound?
Its EC50 is 3570 nM.

And the EC50 (RDES; read-out: EC50)?
The EC50 was 3570 nM.

What about the EC50 (SF268; Homo sapiens, SF-268, 72 h, log of EC50, negative, read-out: log(EC50) (converted)) of the same compound?
Its EC50 is 2190 nM.

What about the EC50 (SF268; Homo sapiens, SF-268, 72 h, read-out: EC50) of the same compound?
The EC50 was 2190 nM.

What about the EC50 (SF268; 72 h, read-out: EC50) of the same compound?
Its EC50 is 2190 nM.

And the EC50 (NCIH460; Homo sapiens, NCI-H460, 72 h, log of EC50, negative, read-out: log(EC50) (converted))?
The EC50 was 2140 nM.

And the EC50 (NCIH460; Homo sapiens, NCI-H460, 72 h, read-out: EC50)?
The EC50 was 2120 nM.

What about the EC50 (NCIH460; 72 h, read-out: EC50) of the same compound?
Its EC50 is 2120 nM.

And the EC50 (MIAPACA2; [1])?
Its EC50 is 2690 nM.

And the EC50 (MIAPACA2; read-out: EC50)?
Its EC50 is 2710 nM.

And the EC50 (MT3; 72 h, read-out: EC50)?
The EC50 was 1890 nM.

What about the EC50 (MT3; MT-3, 72 h, log of EC50, negative, read-out: log(EC50) (converted)) of the same compound?
The EC50 was 1910 nM.

What about the EC50 (MT3; MT-3, 72 h, read-out: EC50) of the same compound?
Its EC50 is 1890 nM.

And the EC50 (PANC1005; Homo sapiens, Panc1005, 72 h, log of EC50, negative, read-out: log(EC50) (converted))?
Its EC50 is 5750 nM.

What about the EC50 (PANC1005; Homo sapiens, Panc1005, 72 h, read-out: EC50) of the same compound?
The EC50 was 5740 nM.

What about the EC50 (PANC1005; 72 h, read-out: EC50) of the same compound?
Its EC50 is 5740 nM.

What about the EC50 (OVCAR4; Homo sapiens, OVCAR-4, 72 h, log of EC50, negative, read-out: log(EC50) (converted)) of the same compound?
Its EC50 is 4070 nM.

And the EC50 (OVCAR4; Homo sapiens, OVCAR-4, 72 h, read-out: EC50)?
The EC50 was 4040 nM.

And the EC50 (OVCAR4; 72 h, read-out: EC50)?
The EC50 was 4040 nM.

What about the EC50 (HT29; 72 h, read-out: EC50) of the same compound?
The EC50 was 3000 nM.

What about the EC50 (HT29; Homo sapiens, HT-29, 72 h, log of EC50, negative, read-out: log(EC50) (converted)) of the same compound?
Its EC50 is 3020 nM.

And the EC50 (HT29; Homo sapiens, HT-29, 72 h, read-out: EC50)?
The EC50 was 3000 nM.
